Data published in the ASAP Discovery antiviral challenge data (2025).

Legend:
SARS-CoV-2 Mpro = SARS-CoV-2 Mpro (UniProt P0DTD1)
MERS-CoV Mpro = MERS-CoV Mpro (UniProt K9N7C7)

O=C(NCc1cccs1)[C@@H]1CN(C(=O)c2cccnc2)CCN1c1ccc(Cl)c(Cl)c1
IC50 (SARS-CoV-2 Mpro): 0.123 µM
IC50 (MERS-CoV Mpro): 57.5 µM
